Measurements: patent publication US9656945B2, “3-acyl-ingenols II” (LEO LABORATORIES LIMITED, priority 2010, dated 2017)

Legend:
Type in all cases: cell-based
[1] = system: PMN's (polymorphonuclear leukocytes); assay: Neutrophil oxidative burst assay; conditions: Leukocyte, 40 min, read-out: Neutrophil oxidative burst Rel EC50 range
Experimental: PMN's (polymorphonuclear leukocytes) were isolated and purified from fresh buffy coats by sequential sedimentation, density centrifugation and lysis of contaminating erythrocytes. Buffy coats were incubated with 2% methocel for 30-45 min to differentially sediment red blood cells. The leukocyte-rich supernatant was transferred to lymphoprep tubes to remove mononuclear cells by density centrifugation (400×g, 30 min). The pellet was resuspended and any remaining erythrocytes lysed using 0.2% NaCl for 30 sec before restoring isotonicity by the addition of 1.2% NaCl. This step was repeated until the cell pellet appears relatively free of red blood cells. Cells were resuspended in DPBS (Dulbecco's Phosphate Buffered Saline) (w.o. Ca^2+, Mg^2+) and the concentration adjusted to 1.4×10^6 cells/ml in HBSS (Hanks Balanced Salt solution) (w Ca^2+, Mg^2+) containing 0.1% BSA (Bovine Serum Albumin) and 5 mM glucose just prior to assay initiation. Titrated reference and test compounds were pre-mixed with HE (Hydroethidine) (10 μM final assay concentration) before addition to 96-well plates containing 2.5×10^5 cells. Following 40 min incubation at RT, changes in the respiratory burst was estimated by measuring fluorescence at 579 nm (excitation: 485 nm) using an Envision plate reader.
Test compound titration curves were fitted to a four-parameter sigmoidal curve after normalizing the effect of the test compound to the effect of the positive control (5×10^−7 M PEP0005). Rel EC50 denotes the concentration of test compound producing an effect that is midway between the fitted top and bottom. Abs EC50 is the concentration of test compound that provokes a response corresponding to 50% of the maximal effect associated with the positive control (5×10^−7 M PEP0005).

[2] = system: HeLa cells (ATCC CCL-002); assay: Necrosis assay; conditions: Homo sapiens, 0.5 h, read-out: HeLa necrosis EC50 range
Experimental: HeLa cells (ATCC CCL-002) were grown in minimal essential medium (Invitrogen catalog no. 42360) containing 10% fetal bovine serum, 100 IU/ml penicillin and 100 μg/ml streptomycin. 4,000-6,000 cells were seeded into 96-well black ViewPlates-plates, clear bottom, (Perkin Elmer) in 100 μl medium and incubated overnight. Compounds were dissolved and pre-diluted in DMSO in 96-well polypropylene plates (Greiner) in a concentration range of 15 μM to 600 μM. At the time of the experiment cell plates were placed on heating blocks at 37° C., medium was removed and 40 μl fresh, pre-warmed medium was added per well. Cells were incubated for 15 min before addition of compounds. In parallel, 3 μl of compounds were diluted with 197 μl growth medium on a Tecan freedom-EVO pipetting station using 250 μl/s pipetting speed, in order to ensure effective mixing of the highly concentrated compound solutions with the aqueous phase. These pre-dilution plates were then equilibrated on heating blocks at 37° C. for 10 min. 80 μl pre-diluted compound were transferred manually to the corresponding wells containing HeLa cells yielding compound concentrations of 10 μM to 400 μM. Control conditions were 1% DMSO in growth medium (100% viability) and 400 μM ingenol mebutate in growth medium (0% viability). Plates were incubated on the heating blocks at 37° C. for 30 min. At the end of the incubation 10 μl PrestoBlue reagent (Invitrogen) were added to each well, plates were sealed with black seal, followed by incubation at 37° C. for 10 min with gentle shaking (150 rpm). Subsequently, plates were placed at room temperature for 20-30 min. Plates were read immediately after on an Envision Fluorescence reader (Perkin Elmer) with excitation at 535 nm and emission at 630 nm. Test compound titration curves were fitted to a four-parameter sigmoidal curve after normalizing the effect of the test compound to the effect of the positive control (4 10^−4 M PEP0005/ingenol mebutate). AbsEC50 denotes the concentration of test compound producing 50% effect.

[3] = system: Primary human epidermal keratinocytes, HeKa; assay: HeKa cytokine release (IL-8) assay; conditions: 6 h, read-out: HeKa cytokine release (IL-8) Rel EC50 range
Experimental: Primary human epidermal keratinocytes, HeKa, were seeded (10.000 cells/well) in 96-well plates the day before the assay. Test compounds were diluted in DMSO (dimethyl sulfoxide) and further diluted in assay medium and pipetted into wells of 96 well-plates containing HeKa cells. The plates were incubated for 6 h at 37° C. in humidified air with 5% CO2. Plates are centrifuged briefly to spin down cells at 4° C., the supernatant was removed and analysed by Meso Scale Discovery (MSD) 4-spot cytokine assay (Pro-inflammatory II Ultra Sensitive kit, MSD, MD, USA). The MSD assay employs a sandwich immunoassay format where capture antibodies were coated in a patterned array on the bottom of the wells of a 4-Spot-Multi-MSD plate. Standard samples were incubated in the MULTI-SPOT plates as well, and the cytokine (IL-8) binds to its corresponding capture antibody spot. The cytokine level was quantitated on a SECTOR™ Imager using a cytokine-specific Detection Antibody labelled with MSD SULFO-TAG™ reagent.
Test compound titration curves were fitted to a four-parameter sigmoidal curve after normalizing the effect of the test compound to the effect of the positive control (1.5×10^−7 M PEP0005). Rel EC50 denotes the concentration of test compound producing an effect that is midway between the fitted top and bottom.

SMILES	EC50 [1] [nM]	EC50 [2] [nM]	EC50 [3] [nM]
CC1=C[C@]23C(=O)[C@@H](C=C(CO)[C@@H](O)[C@]2(O)[C@H]1OC(=O)c1c(C)cccc1O)[C@H]1[C@@H](C[C@H]3C)C1(C)C [Compound 327, Ingenol 3-(2-hydroxy-6-methyl-benzoate)]	< 20	150000 to 350000	–
COc1ccc(C(=O)O[C@H]2C(C)=C[C@]34C(=O)[C@@H](C=C(CO)[C@@H](O)[C@]23O)[C@H]2[C@@H](C[C@H]4C)C2(C)C)cc1 [Compound 313, Ingenol 3-(4-methoxy-benzoate)]	< 20	< 150000	< 20
CC1=C[C@]23C(=O)[C@@H](C=C(CO)[C@@H](O)[C@]2(O)[C@H]1OC(=O)c1ccccc1NCc1ccccc1)[C@H]1[C@@H](C[C@H]3C)C1(C)C [Compound 331, Ingenol 3-(2-benzylamino-benzoate)]	< 20	< 150000	< 20
CC1=C[C@]23C(=O)[C@@H](C=C(CO)[C@@H](O)[C@]2(O)[C@H]1OC(=O)c1cccc2ccccc12)[C@H]1[C@@H](C[C@H]3C)C1(C)C [Compound 319, Ingenol 3-(naphthalene-1-carboxylate)]	< 20	< 150000	< 20
COc1cccc(OC)c1C(=O)O[C@H]1C(C)=C[C@]23C(=O)[C@@H](C=C(CO)[C@@H](O)[C@]12O)[C@H]1[C@@H](C[C@H]3C)C1(C)C [Compound 316, Ingenol 3-(2,6-dimethoxy-benzoate)]	20 to 100	150000 to 350000	20 to 100
CC1=C[C@]23C(=O)[C@@H](C=C(CO)[C@@H](O)[C@]2(O)[C@H]1OC(=O)C1=C(C)CCCC1(C)C)[C@H]1[C@@H](C[C@H]3C)C1(C)C [Compound 345, Ingenol 3-(2,6,6-trimethylcyclohexene-1-carboxylate)]	< 20	< 150000	< 20
COc1cccc(N)c1C(=O)O[C@H]1C(C)=C[C@]23C(=O)[C@@H](C=C(CO)[C@@H](O)[C@]12O)[C@H]1[C@@H](C[C@H]3C)C1(C)C [Compound 334, Ingenol 3-(2-amino-6-methoxy-benzoate)]	20 to 100	–	20 to 100
CC1=C[C@]23C(=O)[C@@H](C=C(CO)[C@@H](O)[C@]2(O)[C@H]1OC(=O)c1c(C)cccc1Cl)[C@H]1[C@@H](C[C@H]3C)C1(C)C [Compound 328, Ingenol 3-(2-chloro-6-methyl-benzoate)]	< 20	< 150000	–
CC1=C[C@]23C(=O)[C@@H](C=C(CO)[C@@H](O)[C@]2(O)[C@H]1OC(=O)C1CCCC1)[C@H]1[C@@H](C[C@H]3C)C1(C)C [Compound 304, Ingenol 3-(cyclopentanecarboxylate)]	< 20	–	20 to 100
CC1=C[C@]23C(=O)[C@@H](C=C(CO)[C@@H](O)[C@]2(O)[C@H]1OC(=O)C1CCC1)[C@H]1[C@@H](C[C@H]3C)C1(C)C [Compound 303, Ingenol 3-(cyclobutanecarboxylate)]	< 20	–	> 100
CC1=C[C@]23C(=O)[C@@H](C=C(CO)[C@@H](O)[C@]2(O)[C@H]1OC(=O)C1CC1)[C@H]1[C@@H](C[C@H]3C)C1(C)C [Compound 301, Ingenol 3-(cyclopropanecarboxylate)]	20 to 100	–	> 100
CC1=C[C@]23C(=O)[C@@H](C=C(CO)[C@@H](O)[C@]2(O)[C@H]1OC(=O)c1c(Cl)cccc1Cl)[C@H]1[C@@H](C[C@H]3C)C1(C)C [Compound 317, Ingenol 3-(2,6-dichloro-benzoate)]	20 to 100	–	< 20
CC(=O)Nc1cccc(C)c1C(=O)O[C@H]1C(C)=C[C@]23C(=O)[C@@H](C=C(CO)[C@@H](O)[C@]12O)[C@H]1[C@@H](C[C@H]3C)C1(C)C [Compound 337, Ingenol 3-(2-acetylamino-6-methyl-benzoate)]	> 100	–	> 100
C=CCOc1cccc(C)c1C(=O)O[C@H]1C(C)=C[C@]23C(=O)[C@@H](C=C(CO)[C@@H](O)[C@]12O)[C@H]1[C@@H](C[C@H]3C)C1(C)C [Compound 326, Ingenol 3-(2-allyloxy-6-methyl-benzoate)]	< 20	< 150000	–
COc1cc(C)c(C(=O)O[C@H]2C(C)=C[C@]34C(=O)[C@@H](C=C(CO)[C@@H](O)[C@]23O)[C@H]2[C@@H](C[C@H]4C)C2(C)C)c(OC)c1 [Compound 329, Ingenol 3-(2,4-dimethoxy-6-methyl-benzoate)]	< 20	< 150000	–
CC1=C[C@]23C(=O)[C@@H](C=C(CO)[C@@H](O)[C@]2(O)[C@H]1OC(=O)C1C(C)(C)C1(C)C)[C@H]1[C@@H](C[C@H]3C)C1(C)C [Compound 344, Ingenol 3-(2,2,3,3-tetramethylcyclopropylcarboxylate)]	< 20	–	< 20
CC1=C[C@]23C(=O)[C@@H](C=C(CO)[C@@H](O)[C@]2(O)[C@H]1OC(=O)c1c(Cl)cc(Cl)cc1Cl)[C@H]1[C@@H](C[C@H]3C)C1(C)C [Compound 318, Ingenol 3-(2,4,6-trichloro-benzoate)]	20 to 100	–	< 20
CC1=C[C@]23C(=O)[C@@H](C=C(CO)[C@@H](O)[C@]2(O)[C@H]1OC(=O)c1ccccc1C)[C@H]1[C@@H](C[C@H]3C)C1(C)C [Compound 310, Ingenol 3-(2-methyl-benzoate)]	< 20	–	< 20
CC1=C[C@]23C(=O)[C@@H](C=C(CO)[C@@H](O)[C@]2(O)[C@H]1OC(=O)c1c(C)cccc1NC(=O)C(C)C)[C@H]1[C@@H](C[C@H]3C)C1(C)C [Compound 338, Ingenol 3-(2-methyl-6-(2-methylpropanoylamino)-benzoate)]	> 100	–	> 100
CC1=C[C@]23C(=O)[C@@H](C=C(CO)[C@@H](O)[C@]2(O)[C@H]1OC(=O)C1=CCCCC1)[C@H]1[C@@H](C[C@H]3C)C1(C)C [Compound 305, Ingenol 3-(cyclohexene-1-carboxylate)]	< 20	–	< 20
CC1=C[C@]23C(=O)[C@@H](C=C(CO)[C@@H](O)[C@]2(O)[C@H]1OC(=O)C1(C#N)CCCCC1)[C@H]1[C@@H](C[C@H]3C)C1(C)C [Compound 309, Ingenol 3-(1-cyano-cyclohexanecarboxylate)]	< 20	–	–
